What is called IC50 is the concentration at which inhibition is half-maximal. One may read the EC50 as the midpoint of the concentration-response curve. Higher therefore signals a need for much substance.

Data on two molecules can be found in US20250186408A1, “TREATMENT OF PHARMACORESISTANT EPILEPSY” (Katholieke Universiteit Leuven, priority 2021, published 2025).

The target in one assay is T1, MAOA (Homo sapiens, UniProt P21397).
T1 construct: purchased Sigma
T1 sequence (P21397 1-527): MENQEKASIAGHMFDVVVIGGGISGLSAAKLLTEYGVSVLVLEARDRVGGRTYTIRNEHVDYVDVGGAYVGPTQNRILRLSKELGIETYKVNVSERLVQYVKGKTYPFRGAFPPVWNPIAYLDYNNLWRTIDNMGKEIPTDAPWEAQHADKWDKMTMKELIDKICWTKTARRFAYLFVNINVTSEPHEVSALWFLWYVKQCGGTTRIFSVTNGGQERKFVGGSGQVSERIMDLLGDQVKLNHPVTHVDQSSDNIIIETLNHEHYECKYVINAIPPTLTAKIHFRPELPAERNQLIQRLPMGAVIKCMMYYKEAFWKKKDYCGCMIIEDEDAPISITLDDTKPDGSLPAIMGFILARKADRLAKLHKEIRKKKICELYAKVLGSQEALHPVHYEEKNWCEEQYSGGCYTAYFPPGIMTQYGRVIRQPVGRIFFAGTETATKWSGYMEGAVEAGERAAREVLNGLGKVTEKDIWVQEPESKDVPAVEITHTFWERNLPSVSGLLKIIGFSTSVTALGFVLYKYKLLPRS
The assay is described as follows: Enzymatic MAOA Inhibitor. Conditions: for Emax: read-out: Max response. It counts as biochemical. As for the experimental part:
(§1) Enzyme preparations were sourced from various vendors-AChE (R&D Systems), COX1 and COX2 (BPS Bioscience), MAOA (Sigma), PDE3A and PDE4D2 (Signal Chem). AChE: enzyme and test compound were pre-incubated for 15 min at RT before substrate addition. Acetylthiocholine and DTNB were added and incubated at RT for 30 min. Signal was detected by measuring absorbance at 405 nm. COX1 and COX2: enzyme stocks were diluted in assay buffer (40 mM Tris-HCl, 1×PBS, 0.5 mM Phenol, 0.01% Tween 20 and 10 nM Hematin) and allowed to equilibrate with compounds at RT for 30 min (binding incubation). Arachidonic acid (1.7 μM) and Ampliflu Red (2.5 μM) were prepared and dispended into a reaction plate. Plates were read immediately on a fluorimeter with the emission detection at 590 nm and excitation wavelength 544 nm. MAOA: enzyme and test compound were pre-incubated for 15 min at 37° C. before substrate addition. The reaction was initiated by addition of kynuramine and incubated at 37° C. for 30 min. The reaction was terminated by addition of NaOH. The amount of 4-hydroquinoline formed was determined through spectrofluorometric readout with the emission detection at 380 nm and excitation wavelength 310 nm. PDE3A and PDE4D2: enzyme and test compound were pre-incubated for 15 min at RT before substrate addition. cAMP substrate (at a concentration equal to EC80) was added and incubated at RT for 30 min. Enzyme reaction was terminated by addition of 9 mM IBMX. Signal was detected using the HitHunter® cAMP detection kit. Microplates were transferred to a PerkinElmer Envision™ instrument and read out as described for each assay. […] For enzyme activity assays, percentage inhibition was calculated using the following equation: […]

For another assay, the target named is T2, COX1 (Homo sapiens, UniProt P23219).
T2 construct: purchased BPS Bioscience
T2 sequence (P23219 24-599): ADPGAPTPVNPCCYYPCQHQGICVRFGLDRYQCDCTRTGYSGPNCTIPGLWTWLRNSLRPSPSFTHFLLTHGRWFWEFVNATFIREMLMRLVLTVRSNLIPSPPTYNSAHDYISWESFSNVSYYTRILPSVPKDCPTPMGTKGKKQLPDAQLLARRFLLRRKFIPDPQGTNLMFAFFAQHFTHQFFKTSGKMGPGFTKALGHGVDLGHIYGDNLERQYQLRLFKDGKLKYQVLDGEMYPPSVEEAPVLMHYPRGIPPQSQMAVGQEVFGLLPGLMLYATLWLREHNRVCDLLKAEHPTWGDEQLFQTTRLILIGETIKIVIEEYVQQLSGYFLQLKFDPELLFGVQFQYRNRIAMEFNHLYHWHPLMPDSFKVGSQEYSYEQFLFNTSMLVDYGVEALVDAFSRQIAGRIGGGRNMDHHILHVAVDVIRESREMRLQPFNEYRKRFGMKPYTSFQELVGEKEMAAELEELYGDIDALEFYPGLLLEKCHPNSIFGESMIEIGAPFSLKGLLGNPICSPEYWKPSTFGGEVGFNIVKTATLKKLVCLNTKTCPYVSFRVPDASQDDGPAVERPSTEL
The assay can be described thus: Enzymatic COX1 Inhibitor. The format is biochemical. Conditions: for IC50: read-out: RC50, result type IC50; for Emax: read-out: Max response. As for the experimental part:
as §1

For assay [1], the target named is T3, AR (Homo sapiens, UniProt P10275).
T3 construct: enzyme fragment for PathHunter enzyme fragment complementation (EFC)
T3 sequence (P10275 1-920): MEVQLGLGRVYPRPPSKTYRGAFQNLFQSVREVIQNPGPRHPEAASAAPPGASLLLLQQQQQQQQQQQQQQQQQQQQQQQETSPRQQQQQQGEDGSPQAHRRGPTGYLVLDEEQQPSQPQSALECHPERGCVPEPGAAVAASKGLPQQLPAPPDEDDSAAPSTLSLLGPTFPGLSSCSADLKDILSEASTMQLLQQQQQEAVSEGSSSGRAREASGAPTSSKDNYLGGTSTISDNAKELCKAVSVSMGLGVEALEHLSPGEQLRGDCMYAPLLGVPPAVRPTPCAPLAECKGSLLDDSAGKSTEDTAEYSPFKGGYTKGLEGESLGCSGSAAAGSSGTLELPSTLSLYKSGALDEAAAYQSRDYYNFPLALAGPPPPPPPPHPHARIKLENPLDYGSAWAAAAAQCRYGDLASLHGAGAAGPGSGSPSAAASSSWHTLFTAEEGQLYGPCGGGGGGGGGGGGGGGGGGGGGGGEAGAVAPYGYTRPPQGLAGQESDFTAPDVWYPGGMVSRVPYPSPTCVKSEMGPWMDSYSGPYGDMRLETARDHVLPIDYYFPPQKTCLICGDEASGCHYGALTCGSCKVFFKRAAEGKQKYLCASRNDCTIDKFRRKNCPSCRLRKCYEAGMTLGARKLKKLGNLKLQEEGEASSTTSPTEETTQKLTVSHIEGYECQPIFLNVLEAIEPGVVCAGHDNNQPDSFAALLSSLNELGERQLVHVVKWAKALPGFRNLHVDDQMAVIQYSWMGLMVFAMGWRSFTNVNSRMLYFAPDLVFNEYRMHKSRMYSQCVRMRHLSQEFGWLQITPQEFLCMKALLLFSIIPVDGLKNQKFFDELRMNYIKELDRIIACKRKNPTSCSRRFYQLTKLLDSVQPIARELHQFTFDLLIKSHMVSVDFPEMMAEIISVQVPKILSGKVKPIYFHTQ
The assay is described as follows: NHR Nuclear Translocation AR Antagonist. The format is cell-based.
Procedure: (§2) In vitro pharmacological profiling of compounds was done against 78 functional assays for 47 common off-targets (30) by Eurofins DiscoverX Corporation (Fremont, CA, USA) using their SAFETYscan E/IC50 ELECT service (Cat Ref 87-1003DR, Safety47 Panel Dose Response). The following assays were performed: (1) GPCR cAMP modulation, (2) calcium mobilization, (3) nuclear hormone receptor assays, (4) KINOMEscan binding assays, (5) ion channel assays, (6) transporter assays and (7) enzymatic assays. Compounds were tested in a range of 10 concentrations, following a 3-fold serial dilution, starting from 10 μM. The assays were performed utilizing the PathHunter enzyme fragment complementation (EFC) technology, FLIPR®-based cellular screening assays, and KINOMEscan kinase binding assays.
(§3) Prior to testing, PathHunter NHR cell lines were expanded from freezer stocks and cells were seeded in a total volume of 20 μL into white walled 384-well microplates and incubated at 37° C. […] Microplates were read following signal generation with a PerkinElmer Envision™ instrument for chemiluminescent signal detection. Compound activity was analysed using CBIS data analysis suite (ChemInnovation, CA). For agonist mode assays, percentage activity was calculated using the following equation:

Assay [2] has as its target T3, AR. The assay can be described thus: NHR Nuclear Translocation AR Agonist. It counts as cell-based.
Procedure: as §2, §3

Where two headings read alike, the source gives them in different places.

For the molecule `CC(C)(C)c1ccc(C#CC(O)c2ccccc2)cc1` (racemic) [Compound 3.3, rac-3-(4-(tert-butyl)phenyl)-1-phenylprop-2-yn-1-ol], the IC50 against MAOA and at COX1 (Enzymatic COX1 Inhibitor) was over 10 µM in each case. The Emax at MAOA came out at 4.4%; at COX1 it was 9.9%.
Regarding `Clc1cccc(C#Cc2n[nH]c3ncccc23)c1` [Compound 10.1, 3-((3-chlorophenyl)ethynyl)-1H-pyrazolo[3,4-b]pyridine], the IC50 at AR [1] was over 10 µM; at MAOA (Enzymatic MAOA Inhibitor, read-out: RC50, result type IC50) it was over 10 µM; at COX1 (Enzymatic COX1 Inhibitor), over 10 µM. The Emax at AR [1] (NHR Nuclear Translocation AR Antagonist, read-out: Max response) worked out at 4.6%; at MAOA (Enzymatic MAOA Inhibitor), 12.4%; on AR [2] (NHR Nuclear Translocation AR Agonist, read-out: Max response), 0%; at COX1 (Enzymatic COX1 Inhibitor), 0%. The same molecule registered a 50% effective concentration (EC50) at AR [2] of over 10 µM.
